Where two headings read alike, the source gives them in different places.
What was measured:
Alternaria solani = assay: Example M: in vivo test on Alternaria solani (leaf blotch disease/tomato/protective); details: 168 h, tomato, protective, 500 ppm active substance, assessed 7 days after inoculation, read-out: % Wirkungsgrad (activity level)
Protocol: Solvent: 49 parts by weight N,N-dimethylformamide Emulsifier: 1 part by weight alkylaryl polyglycol ethers For the preparation of a suitable active substance preparation, 1 part by weight of active substance is mixed with the stated quantities of solvent and emulsifier and the concentrate is diluted to the desired concentration with water. For the testing for protective activity, young tomato plants are sprayed with the active substance preparation at the stated application dosage. […] 7 days after the inoculation, the assessment takes place.

Fusarium graminearum = assay: microbe, parasite or virus in culture; assay type: cell-based
[1] = LogPA (logP of the stated pure compound or, in a mixture, of the main isomer, 1-substituted 3-aryl-1H-pyrazole)
[2] = 72 h, read-out: % Inhibition des Pilzwachstums bei 50 μM
[3] = 168 h, read-out: % Inhibition der DON/AcDON produktion bei 50 μM

| Structure (SMILES) | pest or weed control at 500 ppm (Alternaria solani) | chromatographic logP (physchem; LogPA) | other results |
| --- | --- | --- | --- |
| CCNC(=O)Nc1cc(-c2cn(CC(F)F)nc2-c2ccc(F)cc2)ccn1 [Compound 231] | 95% | 1.91 | – |
| CCOC(=O)CC(CC)CC(=O)Nc1cc(-c2cn(CC)nc2-c2ccc(F)cc2)ccn1 (stereo not drawn) [Compound 332] | 90% | 2.9 | – |
| CC(Nc1cc(-c2cn(CC3CC3)nc2-c2ccc(F)cc2)ccn1)C(F)(F)F (stereo not drawn) [Compound 317] | 70% | 2.33 | – |
| CC(C)Cn1cc(-c2ccnc(NCC3CC3)n2)c(-c2ccc(F)cc2)n1 [Compound 273] | 90% | 2.55 | – |
| CC(C)n1cc(-c2ccnc(NC(C)C(F)(F)F)c2)c(-c2ccc(F)cc2)n1 (stereo not drawn) [Compound 318] | 80% | 2.26 | – |
| Fc1ccc(-c2nn(Cc3ccccc3-c3ccccc3)cc2-c2ccncc2)cc1 [Compound 135] | 78% | – | chromatographic logP (physchem; [1]): 2.34 |
| CC(C)Cn1cc(-c2ccnc(NC(=O)C3CC3)c2)c(-c2ccc(F)c(C#N)c2)n1 [Compound 261] | – | 2.77 | inhibition at 50 µM (Fusarium graminearum; [2]): 39%; inhibition at 50 µM (Fusarium graminearum; [3]): 99% |
| COCC(=O)Nc1cc(-c2cn(C(C)c3ccccc3F)nc2-c2ccc(F)cc2)ccn1 (stereo not drawn) [Compound 244] | 94% | 3.5 | – |
| COCC(=O)Nc1cc(-c2cn(C3CC3)nc2-c2ccc(F)cc2)ccn1 [Compound 321] | 70% | 2.37 | – |
| CCOC(=O)Cn1cc(-c2ccncc2)c(-c2ccc(F)cc2)n1 [Compound 170] | 78% | 1.31 | – |
| CC(C)Nc1nccc(-c2cn(CC(F)F)nc2-c2ccc(F)cc2)n1 [Compound 364] | 95% | 2.05 | – |
| CC(C)=CCn1ncc(-c2ccncc2)c1-c1ccc(F)cc1 [Compound 25] | 90% | – | chromatographic logP (physchem; [1]): 2.68 |
| C[C@H](O)C(=O)Nc1cc(-c2cn(C)nc2-c2ccc(F)cc2)ccn1 [Compound 353] | 80% | 1.57 | – |
| CC(C)Cn1cc(-c2ccnc(NC(=O)C(C)C)c2)c(-c2ccc(F)c(C#N)c2)n1 [Compound 255] | – | 3.03 | inhibition at 50 µM (Fusarium graminearum; [2]): 0%; inhibition at 50 µM (Fusarium graminearum; [3]): 96% |
| CC(c1ccccc1F)n1cc(-c2ccnc(NC(=O)C3CC3)c2)c(-c2ccc(F)cc2)n1 (stereo not drawn) [Compound 259] | 90% | 3.13 | – |
| CC(C)Nc1nccc(-c2cn(C)nc2-c2ccc(F)cc2)n1 [Compound 361] | 70% | 1.65 | – |
| Fc1ccc(-c2nn(CC3OCCO3)cc2-c2ccncc2)cc1 [Compound 275] | 90% | 1.02 | – |
| C#CCNc1nccc(-c2c[nH]nc2-c2ccc(F)cc2)n1 [Compound 173] | 94% | 1.44 | – |
| CC(C)Cn1cc(-c2ccncc2)c(-c2ccc(F)c(C#N)c2)n1 [Compound 154] | – | – | chromatographic logP (physchem; [1]): 1.65; inhibition at 50 µM (Fusarium graminearum; [2]): 0%; inhibition at 50 µM (Fusarium graminearum; [3]): 93% |
| CC(C)n1cc(-c2ncnc3[nH]ccc23)c(-c2ccc(F)cc2)n1 [Compound 310] | 95% | 1.61 | – |
| Cc1cc(C(=O)Cn2cc(-c3ccncc3)c(-c3ccc(F)cc3)n2)nn1C [Compound 144] | 94% | – | chromatographic logP (physchem; [1]): 1.31 |
| CC(C)Cn1cc(-c2ccnc(NC(=O)CC3CC3)c2)c(-c2ccc(F)c(C#N)c2)n1 [Compound 252] | – | 3.14 | inhibition at 50 µM (Fusarium graminearum; [2]): 0%; inhibition at 50 µM (Fusarium graminearum; [3]): 99% |
| CCOCCn1cc(-c2ccnc(NC(=O)COC)c2)c(-c2ccc(F)cc2)n1 [Compound 327] | 95% | 2.38 | inhibition at 50 µM (Fusarium graminearum; [2]): 105%; inhibition at 50 µM (Fusarium graminearum; [3]): 100% |

| Structure (SMILES) | pest or weed control at 500 ppm (Alternaria solani) | chromatographic logP (physchem; LogPA) | other results |
| --- | --- | --- | --- |
| C#CCn1cc(-c2ccnc(NC(C)C)n2)c(-c2ccc(F)cc2)n1 [Compound 363] | 90% | 1.99 | – |
| O=C1OCCC1n1cc(-c2ccncc2)c(-c2ccc(F)cc2)n1 (stereo not drawn) [Compound 142] | 94% | – | chromatographic logP (physchem; [1]): 0.95; inhibition at 50 µM (Fusarium graminearum; [2]): 0%; inhibition at 50 µM (Fusarium graminearum; [3]): 89% |
| CCOC(=O)Nc1cc(-c2cn(CC(C)C)nc2-c2ccc(F)c(C#N)c2)ccn1 [Compound 265] | – | 3.19 | inhibition at 50 µM (Fusarium graminearum; [2]): 9%; inhibition at 50 µM (Fusarium graminearum; [3]): 98% |
| CCn1cc(-c2ccnc(NC(C)C)n2)c(-c2ccc(F)cc2)n1 [Compound 370] | 95% | 1.91 | – |
| CC(C1CC1)n1cc(-c2ccncc2)c(-c2ccc(F)cc2)n1 (stereo not drawn) [Compound 305] | 100% | 1.59 | – |
| O=C(Nc1cc(-c2cn(OC3CCCC3)nc2-c2ccc(F)cc2)ccn1)C1CC1 [Compound 269] | 89% | 3.35 | – |
| CC(C)On1cc(-c2ccncc2)c(-c2ccc(F)cc2)n1 [Compound 227] | 95% | 1.58 | inhibition at 50 µM (Fusarium graminearum; [2]): 100%; inhibition at 50 µM (Fusarium graminearum; [3]): 100% |
| CCC(=O)Nc1cc(-c2cn(Cc3cccc(C#N)c3)nc2-c2ccc(F)cc2)ccn1 [Compound 302] | 95% | 2.38 | – |
| O=C(Nc1cc(-c2cn(Cc3ccccc3F)nc2-c2ccc(F)cc2)ccn1)C1CC1 [Compound 262] | 95% | 2.77 | inhibition at 50 µM (Fusarium graminearum; [2]): 35%; inhibition at 50 µM (Fusarium graminearum; [3]): 99% |
| CC(C)Nc1nccc(-c2cn(CCC#N)nc2-c2ccc(F)cc2)n1 [Compound 362] | 80% | 1.74 | – |
| CC(C)C(=O)Nc1cc(-c2c(-c3ccc(F)cc3O)nn(C)c2OC(F)F)ccn1 [Compound 257] | 94% | 2.44 | inhibition at 50 µM (Fusarium graminearum; [2]): 0%; inhibition at 50 µM (Fusarium graminearum; [3]): 94% |
| COCC(=O)Nc1cc(-c2cn(CC(C)C)nc2-c2ccc(F)c(C#N)c2)ccn1 [Compound 246] | – | 2.98 | inhibition at 50 µM (Fusarium graminearum; [2]): 88%; inhibition at 50 µM (Fusarium graminearum; [3]): 99% |
| O=C(Nc1cc(-c2cn(CC(F)F)nc2-c2ccc(F)cc2)ccn1)c1ccsc1 [Compound 235] | 94% | 2.69 | – |
| CC(Nc1cc(-c2cn(C)nc2-c2ccc(F)cc2)ccn1)C(F)(F)F (stereo not drawn) [Compound 319] | 90% | 1.73 | – |
| CC(C)n1cc(-c2ncnc3[nH]cnc23)c(-c2ccc(F)cc2)n1 [Compound 282] | 70% | 1.79 | – |
| CCC(=O)Nc1cc(-c2cn(C(C)c3ccccc3F)nc2-c2ccc(F)cc2)ccn1 (stereo not drawn) [Compound 248] | 94% | 3.03 | – |
| CCC(=O)Nc1cc(-c2cn(CC(C)C)nc2-c2ccc(F)c(C#N)c2)ccn1 [Compound 230] | – | 2.67 | inhibition at 50 µM (Fusarium graminearum; [2]): 0%; inhibition at 50 µM (Fusarium graminearum; [3]): 97% |
| COc1cc(F)ccc1-c1c(-c2ccncc2)cnn1C1CCCCO1 (stereo not drawn) [Compound 64, 4-[5-(4-fluoro-2-methoxyphenyl)-1-(tetrahydro-2H-pyran-2-yl)-1H-pyrazol-4-yl]pyridine] | – | – | chromatographic logP (physchem; [1]): 1.26 |
| Fc1ccc(-c2nn(C3CCCCC3)cc2-c2ccncc2)cc1 [Compound 168] | – | 1.91 | – |
| CC1(C)OB(c2cn(CC(F)F)nc2-c2ccc(F)cc2)OC1(C)C [[V-4], 1-(2,2-difluoroethyl)-3-(4-fluorophenyl)-4-(4,4,5,5-tetramethyl-1,3,2-dioxaborolan-2-yl)-1H-pyrazole] | – | – | chromatographic logP (physchem; pH 2.3, LogP (pH 2.3)): 3.84; chromatographic logP (physchem; pH 2.7, logP (pH 2.7)): 3.84 |
| CCC(=O)Nc1cc(-c2c(-c3ccc(Cl)cc3F)nn(C)c2C(F)(F)F)ccn1 [Compound 197] | – | 3.32 | – |
| Fc1ccc(Cn2cc(-c3ccncc3)c(-c3ccc(F)cc3)n2)cc1 [Compound 130] | – | – | chromatographic logP (physchem; [1]): 1.69 |
| CCC(=O)Nc1nccc(-c2cn(CC(C)C)nc2-c2ccc(F)cc2)n1 [Compound 365] | 80% | 2.7 | – |

— US20110183978A1, “Phenylpyri(mi)dinylazoles” (Bayer CropScience AG, priority 2009, published 2011)
